Assay results: patent US11655239B2 (SHANGHAI INSTITUTE OF MATERIAL MEDICA, CHINESE ACADEMY OF …, priority 2019, dated 2023)

Key:
ALK = ALK (Homo sapiens (Human), UniProt Q9UM73); assay: Enzyme selectivity test (ELISA), ALK; type: biochemical
Protocol: (§1) 1) Enzyme reaction substrate Poly(Glu, Tyr) 4:1 was diluted to 20 μg/mL with potassium-free PBS (10 mM sodium phosphate buffer, 150 mM NaCl, pH 7.2-7.4), and the microtiter plate was coated with 125 μL/well and placed at 37° C. for 12-16 hours of reaction. The liquid in the well was discard. The plate was washed three times with T-PBS (potassium-free PBS containing 0.1% Tween-20, 200 μL/well), 5 minutes each time. The ELISA plate was dried in an oven at 37° C. for 1 to 2 hours.
(§2) 2) Reaction buffer (50 mM HEPES pH 7.4, 50 mM MgCl2, 0.5 mM MnCl2, 0.2 mM Na3VO4, 1 mM DTT) diluted ATP solution (49 μL) was added to each well, 1 μL of the compound to be tested was added to each well, and then 50 μL of DDR2 kinase domain recombinant protein diluted in the reaction buffer was added to start the reaction. Two control wells without ATP were set in each experiment. The plate placed on a shaker (100 rpm) at 37° C. for 1 hour of reaction. The liquid in the well was discarded and the plate was washed three times with T-PBS.
(§3) 3) Antibody PY99 dilution solution (the antibody was diluted 1:500 with T-PBS containing BSA 5 mg/mL) was added at 100 μL/well, and shaken on a shaker at 37° C. for 0.5 hour of reaction. The liquid in the well was discarded and the plate was washed three times with T-PBS.
(§4) 4) Horseradish peroxidase labeled goat anti-murine secondary antibody dilution solution (the antibody is diluted 1:2000 with T-PBS containing BSA 5 mg/ml) was added at 100 μL/well, and shaken on a shaker at 37° C. for 0.5 hour of reaction. The liquid in the well was discarded and the plate was washed three times with T-PBS.
(§5) 5) 2 mg/ml of OPD color developing solution [diluted with 0.1 M citric acid-sodium citrate buffer (pH=5.4) containing 0.03% H2O2] was added at 100 μL/well and reacted for 1 to 10 minutes at 25° C. in the dark.
(§6) 6) 2M H2SO4 was added at 50 μL/well to stop the reaction, and a tunable wavelength microplate reader VERSAmax was used for reading at a wavelength of 490 nm.
(§7) The IC50 value was obtained by four-parameter regression using the software that came with the microplate reader. […]

[1] = system: mouse model of BLM-induced lung injury; assay: mRNA levels of inflammatory cytokines in lung tissue (qRT-PCR); type: in vivo; settings: mice, 30, 60, 90 mg/kg
Protocol: The experiment used qRT-PCR technology to determine the mRNA levels of pro-inflammatory cytokines in lung tissue. Real-time quantitative PCR was used to detect the mRNA levels of TNF-α, IL-6, IL-1β, TGF-β and others.
About 30 mg of cryopreserved lung tissue was weighed and homogenized and lysed by adding 200 μL of Trizol (Takara, 9109 #). The fluid after the lysis in the well was collected by the RNA sterilization-grade pipette tip and transferred to the corresponding sterile EP tube. […] of chloroform was added, shaken vigorously for 30 sec, and centrifuged for 15 minutes in a centrifuge at 4° C. at 12000 rpm. The upper aqueous layer was transferred to a new EP tube, an equal volume of isopropanol was used to precipitate the RNA in the aqueous phase, and the tube was allowed to stand at −20° C. for more than 1 hr. And then the tube was centrifuged for 15 min at 4° C. at 12000 rpm, and the supernatant was discarded. 75% ethanol was added to wash the RNA pellet, and then the tube was centrifuged for 15 min at 4° C. at 12000 rpm, and the supernatant was discarded. The tube was placed at room temperature for 10-20 min to dry the RNA pellet. 25-200 μL of RNase-free water was added for dissolution and stored at −80° C.
PrimeScript™ RT Master Mix (Takara, RR036A) was selected for mRNA reverse transcription. Please refer to the instructions for the system. […]

IGF-1R = IGF-1R (Homo sapiens (Human), UniProt P08069); assay: Enzyme selectivity test (ELISA), IGF-1R; type: biochemical
Protocol: as §1, §2, §3, §4, §5, §6, §7

[2] = system: pulmonary fibrosis induced by bleomycin in mice; assay: Active TGF-β1 in BALF (ELISA); type: in vivo, mouse; settings: 90 mg/kg; reduced from 123 pg/ml in BLM group
Protocol: The expression level of active TGF-β1 in BALF was detected by using the TGF-β1 ELISA detection kit (Shanghai Wuhao Bio-Tech Co., Ltd). The steps are as follows:
1) 10 standard wells were set on the enzyme coated plate. After the standard was diluted, the volume in each well was 50 μl, and the concentration was 1800 ng/L, 1200 ng/L, 600 ng/L, 300 ng/L, 150 ng/L, respectively. The concentration was the same every two tubes.
2) Sample addition: a blank well (no sample and enzyme reagent) and a well for the sample to be tested were set, respectively. 40 μl of sample dilution solution was added to the well for the sample to be tested on the enzyme coated plate, and then 10 μl of the sample to be tested was added.
3) Incubation: the sample to be tested was sealed with a sealing film and then incubated at 37° C. for 30 minutes.
4) Solution preparation: the concentrated washing liquid (30 times (20 times of 48T)) was diluted 30 times (20 times of 48T) with distilled water for use.
5) Wash: the liquid was discarded and spun dry. Each well was filled with the washing liquid. After standing for 30 seconds, the washing liquid was discarded. This was repeated 5 times and pat dry. […]
10) Determination: zero setting was performed using a blank well within 15 minutes after the reaction was stopped, and the absorbance (OD value) of each well was measured in sequence at a wavelength of 450 nm.

Chain of IGF-1R (P08069 31-1367, species assumed): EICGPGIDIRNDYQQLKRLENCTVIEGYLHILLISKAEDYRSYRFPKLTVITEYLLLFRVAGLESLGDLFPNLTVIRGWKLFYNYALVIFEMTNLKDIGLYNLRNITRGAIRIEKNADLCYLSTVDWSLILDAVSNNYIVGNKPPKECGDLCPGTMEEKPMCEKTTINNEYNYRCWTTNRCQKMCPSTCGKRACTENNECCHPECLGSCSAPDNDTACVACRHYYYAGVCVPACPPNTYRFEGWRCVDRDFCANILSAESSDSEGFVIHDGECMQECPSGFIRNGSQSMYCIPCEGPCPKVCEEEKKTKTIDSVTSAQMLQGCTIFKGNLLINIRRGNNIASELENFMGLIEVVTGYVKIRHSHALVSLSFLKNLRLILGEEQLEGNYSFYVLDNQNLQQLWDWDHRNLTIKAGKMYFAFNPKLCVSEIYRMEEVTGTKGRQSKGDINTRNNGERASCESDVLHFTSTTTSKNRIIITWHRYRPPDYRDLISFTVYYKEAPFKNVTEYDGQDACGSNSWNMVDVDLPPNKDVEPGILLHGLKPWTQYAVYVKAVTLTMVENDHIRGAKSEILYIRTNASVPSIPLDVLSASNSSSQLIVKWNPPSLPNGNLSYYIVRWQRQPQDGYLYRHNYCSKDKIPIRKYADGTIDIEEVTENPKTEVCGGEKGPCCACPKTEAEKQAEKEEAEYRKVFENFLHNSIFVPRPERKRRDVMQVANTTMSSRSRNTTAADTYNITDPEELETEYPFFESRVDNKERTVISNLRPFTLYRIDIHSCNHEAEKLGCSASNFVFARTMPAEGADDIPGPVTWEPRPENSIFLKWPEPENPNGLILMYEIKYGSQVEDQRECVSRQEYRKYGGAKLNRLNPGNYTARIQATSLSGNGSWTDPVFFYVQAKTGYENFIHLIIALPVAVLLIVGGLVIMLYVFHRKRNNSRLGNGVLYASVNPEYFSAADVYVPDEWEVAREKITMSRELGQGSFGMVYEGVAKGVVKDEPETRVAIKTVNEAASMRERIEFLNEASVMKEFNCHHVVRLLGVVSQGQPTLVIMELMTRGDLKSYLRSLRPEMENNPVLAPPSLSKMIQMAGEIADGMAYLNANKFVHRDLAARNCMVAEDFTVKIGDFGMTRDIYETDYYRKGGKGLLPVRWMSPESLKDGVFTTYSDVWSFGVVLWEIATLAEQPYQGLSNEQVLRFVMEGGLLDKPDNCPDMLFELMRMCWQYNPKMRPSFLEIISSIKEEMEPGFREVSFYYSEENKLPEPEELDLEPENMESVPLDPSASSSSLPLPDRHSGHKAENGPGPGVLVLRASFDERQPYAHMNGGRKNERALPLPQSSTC
Chain of ALK (Q9UM73 19-1620, species assumed): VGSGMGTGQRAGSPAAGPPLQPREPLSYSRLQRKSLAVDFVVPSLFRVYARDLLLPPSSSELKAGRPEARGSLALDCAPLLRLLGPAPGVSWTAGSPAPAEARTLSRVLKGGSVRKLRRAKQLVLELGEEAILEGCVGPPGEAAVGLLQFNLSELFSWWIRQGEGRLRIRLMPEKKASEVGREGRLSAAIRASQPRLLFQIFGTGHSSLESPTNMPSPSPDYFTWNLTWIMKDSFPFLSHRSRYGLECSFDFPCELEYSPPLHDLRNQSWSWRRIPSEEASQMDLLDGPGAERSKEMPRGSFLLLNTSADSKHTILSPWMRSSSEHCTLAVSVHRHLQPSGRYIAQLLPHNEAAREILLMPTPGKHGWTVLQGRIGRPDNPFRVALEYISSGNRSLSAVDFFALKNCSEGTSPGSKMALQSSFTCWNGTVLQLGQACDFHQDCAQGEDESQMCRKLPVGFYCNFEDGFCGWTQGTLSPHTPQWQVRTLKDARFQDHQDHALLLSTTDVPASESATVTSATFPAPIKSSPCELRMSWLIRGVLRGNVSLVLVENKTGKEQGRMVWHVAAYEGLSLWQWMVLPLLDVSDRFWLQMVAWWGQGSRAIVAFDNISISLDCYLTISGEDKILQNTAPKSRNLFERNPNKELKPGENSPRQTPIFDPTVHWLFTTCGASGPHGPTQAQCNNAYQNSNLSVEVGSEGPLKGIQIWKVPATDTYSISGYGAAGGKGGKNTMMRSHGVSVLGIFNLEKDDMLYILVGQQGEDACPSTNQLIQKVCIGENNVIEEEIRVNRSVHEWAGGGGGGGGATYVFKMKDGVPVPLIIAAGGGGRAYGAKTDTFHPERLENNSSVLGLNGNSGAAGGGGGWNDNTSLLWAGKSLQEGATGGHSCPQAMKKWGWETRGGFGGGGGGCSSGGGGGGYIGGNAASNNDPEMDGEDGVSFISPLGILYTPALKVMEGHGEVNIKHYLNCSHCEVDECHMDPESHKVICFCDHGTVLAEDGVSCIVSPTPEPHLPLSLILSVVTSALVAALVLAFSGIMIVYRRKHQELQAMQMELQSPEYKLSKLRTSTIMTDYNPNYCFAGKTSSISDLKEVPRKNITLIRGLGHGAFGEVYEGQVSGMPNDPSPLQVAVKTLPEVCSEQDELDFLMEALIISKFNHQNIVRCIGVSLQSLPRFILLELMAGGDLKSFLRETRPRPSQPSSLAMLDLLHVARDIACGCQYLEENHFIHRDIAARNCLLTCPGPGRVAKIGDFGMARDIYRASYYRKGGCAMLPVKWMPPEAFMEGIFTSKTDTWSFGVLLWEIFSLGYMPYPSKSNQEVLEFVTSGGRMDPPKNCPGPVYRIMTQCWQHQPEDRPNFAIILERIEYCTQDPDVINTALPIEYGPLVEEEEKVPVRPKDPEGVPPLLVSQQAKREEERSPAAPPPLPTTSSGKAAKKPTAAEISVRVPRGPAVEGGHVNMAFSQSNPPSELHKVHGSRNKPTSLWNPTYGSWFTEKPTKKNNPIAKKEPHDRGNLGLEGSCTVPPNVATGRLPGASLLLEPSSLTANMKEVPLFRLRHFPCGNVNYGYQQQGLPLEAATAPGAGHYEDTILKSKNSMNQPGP

SMILES: O=C(Nc1cccc(C(F)(F)F)c1)c1ccc(C2CC2)c(-c2ccc3nc(Nc4cnn(C5CC5)c4)ncc3c2)c1 [Compound S15, 4-cyclopropyl-3-(2-((1-cyclopropyl-1H-pyrazol-4-yl)amino)quinazolin-6-yl)-N-(3-(trifluoromethyl)phenyl)benzamide]
- IC50 (ALK): > 1000 nM
- mRNA levels of pro-inflammatory cytokines TNF-α, IL-1β and IL-6 in lung tissue [1]: significantly reduce the levels of pro-inflammatory cytokines in a dose-dependent manner
- IC50 (IGF-1R): > 1000 nM
- active TGF-β1 in BALF [2]: 48 pg/mL
